{
  "source": "patent US8412321B2",
  "about": "“Method of identifying strategies for treatment or prevention of ventricular fibrillation and ventricular tachycardia” (Cornell Research Foundation, Inc., priority 2004, dated 2013)",
  "origin": "cited, not measured here",
  "system": "arterially perfused canine ventricle",
  "data": [
    {"compound": "COc1ccc(CCN(C)CCCC(C#N)(c2ccc(OC)c(OC)c2)C(C)C)cc1OC", "note": "(stereo not drawn) [verapamil]", "values": [
      {"measurement": "slope of the APD restitution relation", "setting": "after exposure to verapamil, FIG. 14A", "result": "reduction in the slope of the APD restitution relation"},
      {"measurement": "magnitude of APD alternans (AM)", "setting": "pacing at different basic cycle lengths, FIG. 14B", "result": "reduction in the magnitude of APD alternans"},
      {"measurement": "composite FFT of MAP recordings during VF", "setting": "verapamil added after 35 min of VF, FIG. 14C", "result": "converted the broad FFT spectra during VF to a single frequency"}
    ]}
  ]
}
